Measured values published in patent US8921376B2, “Pyrrolopyridines useful as inhibitors of protein kinase” (Vertex Pharmaceuticals Incorporated, priority 2005, dated 2014).

Columns and labels:
Assay type in all cases: biochemical
JAK2 = JAK2 (Homo sapiens, UniProt O60674); assay: JAK2 inhibition assay (as Example 3 with JAK-2 enzyme); conditions: enzyme inhibition, Table 5
Procedure: (§1) Compounds were screened for their ability to inhibit JAK using the assay shown below. Reactions were carried out in a kinase buffer containing 100 mM HEPES (pH 7.4), 1 mM DTT, 10 mM MgCl2, 25 mM NaCl, and 0.01% BSA.
(§2) Substrate concentrations in the assay were 5 μM ATP (200 μCi/μmole ATP) and 1 μM poly(Glu)4Tyr. Reactions were carried out at 25° C. and 1 nM JAK3.
(§3) To each well of a 96 well polycarbonate plate was added 1.5 μl of a candidate JAK3 inhibitor along with 50/1 of kinase buffer containing 2 μM poly(Glu)4Tyr and 10 μM ATP. This was then mixed and 50 μl of kinase buffer containing 2 nM JAK3 enzyme was added to start the reaction. After 20 minutes at room temperature (25 C), the reaction was stopped with 50 μl of 20% trichloroacetic acid (TCA) that also contained 0.4 mM ATP. The entire contents of each well were then transferred to a 96 well glass fiber filter plate using a TomTek Cell Harvester. After washing, 60 μl of scintillation fluid was added and ^33P incorporation detected on a Perkin Elmer TopCount.
The assays were as described above in Example 3 except that JAK-2 enzyme was used, the final poly(Glu)4Tyr concentration was 15 μM, and final ATP concentration was 12 μM.

ROCK I = ROCK I (Homo sapiens, UniProt Q13464); assay: ROCK-I inhibition assay (radioactive enzyme assay, MBP substrate); conditions: enzyme inhibition, Ki(app), Table 5
ROCK I, sequence (Q13464 whole entry): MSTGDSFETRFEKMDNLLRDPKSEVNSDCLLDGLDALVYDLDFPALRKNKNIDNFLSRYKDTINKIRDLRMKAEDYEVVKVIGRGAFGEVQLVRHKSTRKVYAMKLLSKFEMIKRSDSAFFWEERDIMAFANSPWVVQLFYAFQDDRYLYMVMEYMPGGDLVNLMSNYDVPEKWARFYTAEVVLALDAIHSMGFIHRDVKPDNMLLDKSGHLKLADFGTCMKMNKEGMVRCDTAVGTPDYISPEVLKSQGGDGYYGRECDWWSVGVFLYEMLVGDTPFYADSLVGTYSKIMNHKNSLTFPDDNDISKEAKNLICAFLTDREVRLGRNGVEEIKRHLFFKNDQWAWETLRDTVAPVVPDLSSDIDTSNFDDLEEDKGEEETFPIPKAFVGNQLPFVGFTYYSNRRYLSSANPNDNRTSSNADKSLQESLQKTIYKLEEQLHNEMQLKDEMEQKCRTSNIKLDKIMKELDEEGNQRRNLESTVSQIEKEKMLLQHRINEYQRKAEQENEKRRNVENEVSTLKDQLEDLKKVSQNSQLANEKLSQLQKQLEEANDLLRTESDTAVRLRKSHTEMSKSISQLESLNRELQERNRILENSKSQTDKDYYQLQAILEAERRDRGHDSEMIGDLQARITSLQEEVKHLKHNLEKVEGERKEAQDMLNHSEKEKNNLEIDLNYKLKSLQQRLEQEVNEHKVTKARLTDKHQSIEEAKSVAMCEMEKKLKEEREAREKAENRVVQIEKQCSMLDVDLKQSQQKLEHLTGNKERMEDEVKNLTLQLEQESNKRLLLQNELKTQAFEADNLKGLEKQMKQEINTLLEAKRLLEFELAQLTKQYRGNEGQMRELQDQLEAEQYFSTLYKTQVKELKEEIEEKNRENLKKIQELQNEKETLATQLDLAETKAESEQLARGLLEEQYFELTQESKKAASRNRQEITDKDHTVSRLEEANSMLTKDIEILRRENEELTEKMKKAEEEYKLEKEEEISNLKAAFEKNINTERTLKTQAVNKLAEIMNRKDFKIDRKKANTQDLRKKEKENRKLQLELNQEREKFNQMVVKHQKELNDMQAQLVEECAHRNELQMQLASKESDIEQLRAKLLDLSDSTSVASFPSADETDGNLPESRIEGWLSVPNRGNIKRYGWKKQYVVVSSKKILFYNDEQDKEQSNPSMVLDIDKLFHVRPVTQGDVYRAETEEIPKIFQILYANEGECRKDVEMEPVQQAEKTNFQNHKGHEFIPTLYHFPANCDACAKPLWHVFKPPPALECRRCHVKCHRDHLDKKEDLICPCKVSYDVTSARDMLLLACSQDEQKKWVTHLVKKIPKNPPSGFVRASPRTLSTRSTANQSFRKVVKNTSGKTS
Procedure: Compounds were screened for their ability to inhibit ROCK using a standard radioactive enzyme assay. Assays were carried out in a solution containing 100 mM HEPES (pH 7.5), 10 mM MgCl2, 25 mM NaCl, 2 mM DTT, and 1.5% DMSO. Final substrate concentrations in the assay were 13 μM [γ-^33P] ATP (25 mCi ^33P ATP/mmol ATP, Perkin Elmer, Cambridge, Mass./Sigma Chemicals, St Louis, Mo.) and 27 μM Myelin Basic Protein (MBP). Final enzyme concentration in the assay was 5 nM ROCK. Assays were carried out at room temperature. 1.5 μl of DMSO stock containing serial dilutions of the compound of the present invention (concentrations ranging from 10 μM to 2.6 nM) was placed in a 96 well plate. 50 μl of Solution 1 (100 mM HEPES (pH 7.5), 10 mM MgCl2, […]) was added to the plate. The reaction was initiated by addition of 50 μl of Solution 2 (100 mM HEPES (pH 7.5), 10 mM MgCl2, 4 mM DTT, […] and 10 nM ROCK). After 2 hours the reaction was quenched with 50 μL of 30% trichloroacetic acid (TCA, Fisher) containing 9 mM ATP. Transfer of 140 μL of the quenched reaction to a glass fiber filter plate (Corning, Cat. No. 3511) was followed by washing 3 times with 5% TCA. 50 μl of Optima Gold scintillation fluid (Perkin Elmer) was added and the plates were counted on a Top Count (Perkin Elmer). After removing mean background values for all of the data points the data was fit using Prism software to obtain a Ki(app).

JAK3 = biological target: T1, JAK3 (Homo sapiens, UniProt P52333); assay: JAK3 inhibition assay (33P incorporation into poly(Glu)4Tyr); conditions: enzyme inhibition, Table 5
T1 sequence (P52333 1-1124): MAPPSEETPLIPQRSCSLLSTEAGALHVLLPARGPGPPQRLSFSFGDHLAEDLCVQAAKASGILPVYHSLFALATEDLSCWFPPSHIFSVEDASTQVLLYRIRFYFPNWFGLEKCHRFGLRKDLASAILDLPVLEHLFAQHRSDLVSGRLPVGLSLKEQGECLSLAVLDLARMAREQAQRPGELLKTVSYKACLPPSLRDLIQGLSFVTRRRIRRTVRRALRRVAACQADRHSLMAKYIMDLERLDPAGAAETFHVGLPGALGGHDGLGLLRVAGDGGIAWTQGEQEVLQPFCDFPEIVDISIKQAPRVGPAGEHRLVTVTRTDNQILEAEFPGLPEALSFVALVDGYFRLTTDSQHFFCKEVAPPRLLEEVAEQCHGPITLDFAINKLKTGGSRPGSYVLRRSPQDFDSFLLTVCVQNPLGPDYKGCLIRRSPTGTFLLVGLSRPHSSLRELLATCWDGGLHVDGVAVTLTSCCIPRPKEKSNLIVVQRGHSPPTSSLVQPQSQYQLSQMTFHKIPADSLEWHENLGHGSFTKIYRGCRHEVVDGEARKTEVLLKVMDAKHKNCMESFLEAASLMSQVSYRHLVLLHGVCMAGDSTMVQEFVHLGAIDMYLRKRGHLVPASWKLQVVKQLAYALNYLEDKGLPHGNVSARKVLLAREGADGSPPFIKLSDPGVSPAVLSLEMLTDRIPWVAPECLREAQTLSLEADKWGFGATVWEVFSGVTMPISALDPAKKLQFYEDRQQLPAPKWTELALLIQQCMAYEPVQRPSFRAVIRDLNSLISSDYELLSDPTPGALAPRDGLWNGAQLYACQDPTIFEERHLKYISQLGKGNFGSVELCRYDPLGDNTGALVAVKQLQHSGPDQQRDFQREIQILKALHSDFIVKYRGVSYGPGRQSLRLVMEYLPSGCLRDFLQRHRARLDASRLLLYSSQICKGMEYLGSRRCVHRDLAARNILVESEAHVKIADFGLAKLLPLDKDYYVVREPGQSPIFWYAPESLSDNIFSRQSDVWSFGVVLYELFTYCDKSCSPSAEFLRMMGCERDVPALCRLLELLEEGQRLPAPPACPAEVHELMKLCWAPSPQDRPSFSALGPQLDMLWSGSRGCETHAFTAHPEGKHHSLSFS
Procedure: as §1, §2, §3

JAK2, sequence (O60674 whole entry): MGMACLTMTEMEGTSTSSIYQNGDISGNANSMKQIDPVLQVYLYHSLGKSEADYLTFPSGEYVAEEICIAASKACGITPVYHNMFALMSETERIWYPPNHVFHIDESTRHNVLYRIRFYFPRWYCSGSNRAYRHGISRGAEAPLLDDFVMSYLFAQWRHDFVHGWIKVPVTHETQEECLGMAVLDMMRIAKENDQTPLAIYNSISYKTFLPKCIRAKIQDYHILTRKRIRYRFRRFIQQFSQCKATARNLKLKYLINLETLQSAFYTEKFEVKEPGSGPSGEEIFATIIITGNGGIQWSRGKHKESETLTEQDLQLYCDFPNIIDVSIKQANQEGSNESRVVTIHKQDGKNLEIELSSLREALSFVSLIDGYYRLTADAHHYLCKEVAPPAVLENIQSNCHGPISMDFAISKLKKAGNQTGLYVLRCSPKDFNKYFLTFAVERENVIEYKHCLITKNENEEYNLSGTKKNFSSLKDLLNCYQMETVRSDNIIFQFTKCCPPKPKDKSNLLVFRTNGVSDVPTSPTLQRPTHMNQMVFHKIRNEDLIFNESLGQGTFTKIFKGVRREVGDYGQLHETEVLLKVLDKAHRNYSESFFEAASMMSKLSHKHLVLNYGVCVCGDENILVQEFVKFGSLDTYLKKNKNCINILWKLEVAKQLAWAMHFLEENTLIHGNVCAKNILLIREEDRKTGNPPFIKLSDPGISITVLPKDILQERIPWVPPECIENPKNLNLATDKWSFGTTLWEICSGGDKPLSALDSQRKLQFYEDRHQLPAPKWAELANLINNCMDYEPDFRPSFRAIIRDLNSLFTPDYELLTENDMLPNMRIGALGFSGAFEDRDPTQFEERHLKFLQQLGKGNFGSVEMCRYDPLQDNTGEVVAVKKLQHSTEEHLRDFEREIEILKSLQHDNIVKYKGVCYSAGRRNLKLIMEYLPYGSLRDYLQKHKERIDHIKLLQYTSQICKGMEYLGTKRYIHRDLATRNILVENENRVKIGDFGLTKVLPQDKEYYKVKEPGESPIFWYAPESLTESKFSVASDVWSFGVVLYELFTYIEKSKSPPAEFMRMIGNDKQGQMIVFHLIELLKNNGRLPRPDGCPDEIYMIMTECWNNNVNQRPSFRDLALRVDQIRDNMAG

SMILES | Ki (JAK2) [nM] | Ki (ROCK I) [nM] | Ki (JAK3) [nM]
c1cc(-c2ccnc3[nH]ccc23)nc(N2CCc3ccccc3C2)c1 [compound 38, 2-(6-(1H-Pyrrolo[2,3-b]pyridin-4-yl)pyridin-2-yl)-1,2,3,4-tetrahydroisoquinoline] | 500 to 5000 | 500 to 5000 | 500 to 5000
Clc1cc(-c2ccnc3[nH]ccc23)ccn1 [compound 39, 4-(2-Chloro-pyridin-4-yl)-1H-pyrrolo[2,3-b]pyridine] | 500 to 5000 | 500 to 5000 | 500 to 5000
COc1cc(-c2ccnc3[nH]ccc23)cc(OC)c1OC [compound 40, 4-(3,4,5-Trimethoxy-phenyl)-1H-pyrrolo[2,3-b]pyridine] | 500 to 5000 | 500 to 5000 | 500 to 5000
c1ccc(COc2cccc(-c3ccnc4[nH]ccc34)c2)cc1 [compound 42, 4-(3-Benzyloxy-phenyl)-1H-pyrrolo[2,3-b]pyridine] | 500 to 5000 | < 500 | < 500
CC(=O)Nc1ccc(-c2ccnc3[nH]ccc23)cc1 [compound 43, N-[4-(1H-Pyrrolo[2,3-b]pyridin-4-yl)-phenyl]-acetamide] | < 500 | < 500 | < 500
CC(C)(C)OC(=O)N1CC=C(c2ccnc3[nH]ccc23)CC1 [compound 44] | < 500 | < 500 | < 500
C1=C(c2ccnc3[nH]ccc23)CCNC1 [compound 45] | 500 to 5000 | < 500 | 500 to 5000
Fc1cccc(-c2c(Cl)cnc3[nH]ccc23)n1 [compound 48, 5-chloro-4-(6-fluoropyridin-2-yl)-1H-pyrrolo[2,3-b]pyridine] | < 500 | 500 to 5000 | < 500
c1cc(-c2ccnc3[nH]ccc23)nc(N2CCC[C@H]2CN2CCCC2)c1 [compound 54] | > 5000 | 500 to 5000 | > 5000
c1cc(NCC2COc3ccccc3O2)nc(-c2ccnc3[nH]ccc23)c1 (stereo not drawn) [compound 58, N-((2,3-Dihydrobenzo[b][1,4]dioxin-2-yl)methyl)-6-(1H-pyrrolo[2,3-b]pyridin-4-yl)pyridin-2-amine] | 500 to 5000 | 500 to 5000 | 500 to 5000
c1cc(NCc2ccc3c(c2)OCO3)nc(-c2ccnc3[nH]ccc23)c1 [compound 60, N-((Benzo[d][1,3]dioxol-6-yl)methyl)-6-(1H-pyrrolo[2,3-b]pyridin-4-yl)pyridin-2-amine] | 500 to 5000 | 500 to 5000 | 500 to 5000
CC(=O)N1CC=C(c2ccnc3[nH]ccc23)CC1 [compound 64] | 500 to 5000 | 500 to 5000 | 500 to 5000

More lines, now with the values ahead:

Ki (JAK2) [nM] | Ki (ROCK I) [nM] | Ki (JAK3) [nM] | SMILES
> 5000 | 500 to 5000 | > 5000 | CN1CCCC1CCNc1cccc(-c2ccnc3[nH]ccc23)n1 (stereo not drawn) [compound 37, N-(2-(1-Methylpyrrolidin-2-yl)ethyl)-6-(1H-pyrrolo[2,3-b]pyridin-4-yl)pyridin-2-amine]
< 500 | < 500 | 500 to 5000 | Clc1ccc(-c2ccnc3[nH]ccc23)cc1Cl [compound 41, 4-(3,4-Dichloro-phenyl)-1H-pyrrolo[2,3-b]pyridine]
500 to 5000 | 500 to 5000 | 500 to 5000 | CCOC(=O)c1cccc(-c2ccnc3[nH]ccc23)c1 [compound 46, 3-(1H-Pyrrolo[2,3-b]pyridin-4-yl)-benzoic acid ethyl ester]
500 to 5000 | 500 to 5000 | 500 to 5000 | O=C(O)c1cccc(-c2ccnc3[nH]ccc23)c1 [compound 47, 3-(1H-Pyrrolo[2,3-b]pyridin-4-yl)-benzoic acid]
500 to 5000 | < 500 | < 500 | OCc1cccc(-c2ccnc3[nH]ccc23)c1 [compound 49, [3-(1H-Pyrrolo[2,3-b]pyridin-4-yl)-phenyl]-methanol]
500 to 5000 | 500 to 5000 | 500 to 5000 | Fc1cccc(-c2ccnc3[nH]ccc23)n1 [compound 50, 4-(6-fluoropyridin-2-yl)-1H-pyrrolo[2,3-b]pyridine]
500 to 5000 | 500 to 5000 | 500 to 5000 | OC1CCN(c2cccc(-c3ccnc4[nH]ccc34)n2)C1 (stereo not drawn) [compound 51]
< 500 | < 500 | < 500 | CCN(CC)c1cccc(-c2ccnc3[nH]ccc23)n1 [compound 52, N,N-Diethyl-6-(1H-pyrrolo[2,3-b]pyridin-4-yl)pyridin-2-amine]
500 to 5000 | < 500 | 500 to 5000 | CN(CCC(O)c1ccccc1)c1cccc(-c2ccnc3[nH]ccc23)n1 (stereo not drawn) [compound 53]
< 500 | < 500 | 500 to 5000 | CN(CC(O)c1ccccc1)c1cccc(-c2ccnc3[nH]ccc23)n1 (stereo not drawn) [compound 55, 2-(N-(6-(1H-pyrrolo[2,3-b]pyridin-4-yl)pyridin-2-yl)-N-methylamino)1-phenylethanol]
< 500 | 500 to 5000 | 500 to 5000 | CN(Cc1cccnc1)c1cccc(-c2ccnc3[nH]ccc23)n1 [compound 56, N-Methyl-N-((pyridin-3-yl)methyl)-6-(1H-pyrrolo[2,3-b]pyridin-4-yl)pyridin-2-amine]
500 to 5000 | 500 to 5000 | > 5000 | CC(C)(CO)CNc1cccc(-c2ccnc3[nH]ccc23)n1 [compound 57, 3-(6-(1H-Pyrrolo[2,3-b]pyridin-4-yl)pyridin-2-ylamino)-2,2-dimethylpropan-1-ol]
> 5000 | 500 to 5000 | > 5000 | CC(C)C[C@@H](CO)Nc1cccc(-c2ccnc3[nH]ccc23)n1 [compound 59, (S)-2-(6-(1H-Pyrrolo[2,3-b]pyridin-4-yl)pyridin-2-ylamino)-4-methylpentan-1-ol]
< 500 | 500 to 5000 | 500 to 5000 | CC(C)N(C)c1cccc(-c2ccnc3[nH]ccc23)n1 [compound 61, N-Isopropyl-N-methyl-6-(1H-pyrrolo[2,3-b]pyridin-4-yl)pyridin-2-amine]
< 500 | < 500 | < 500 | COCc1cccc(-c2ccnc3[nH]ccc23)c1 [compound 62, 4-(3-Methoxymethyl-phenyl)-1H-pyrrolo[2,3-b]pyridine]
< 500 | < 500 | < 500 | N#CCc1cccc(-c2ccnc3[nH]ccc23)c1 [compound 63, [3-(1H-Pyrrolo[2,3-b]pyridin-4-yl)-phenyl]-acetonitrile]
